Assays:
Assay type in all cases: in vivo
[1] = test system: Italian ryegrass (Lolium multiflorum); assay: Test A preemergence, visual plant response rating; conditions: for Ryegrass, Italian plant response rating (0 to 100 scale): approx. 10 days
Text: (§1) Seeds of plant species selected from barnyardgrass (Echinochloa crus-galli), kochia (Kochia scoparia), ragweed (common ragweed, Ambrosia elatior), Italian ryegrass (Lolium multiflorum), foxtail, giant (giant foxtail, Setaria faberii), foxtail, green (green foxtail, Setaria viridis), and pigweed (Amaranthus retroflexus) were planted into a blend of loam soil and sand and treated preemergence with a directed soil spray using test chemicals formulated in a non-phytotoxic solvent mixture which included a surfactant.
(§2) At the same time, plants selected from these weed species and also wheat (Triticum aestivum), corn (Zea mays), blackgrass (Alopecurus myosuroides), and galium (catchweed bedstraw, Galium aparine) were planted in pots containing the same blend of loam soil and sand and treated with postemergence applications of test chemicals formulated in the same manner. Plants ranged in height from 2 to 10 cm and were in the one- to two-leaf stage for the postemergence treatment. Treated plants and untreated controls were maintained in a greenhouse for approximately 10 days, after which time all treated plants were compared to untreated controls and visually evaluated for injury. Plant response ratings, summarized in Table A, are based on a 0 to 100 scale where 0 is no effect and 100 is complete control. A dash (-) response means no test result.

[2] = test system: barnyardgrass (Echinochloa crus-galli); assay: Test A preemergence, visual plant response rating; conditions: for Barnyardgrass plant response rating (0 to 100 scale): approx. 10 days
Text: as §1, §2

[3] = test system: foxtail, giant (giant foxtail, Setaria faberii); assay: Test A preemergence, visual plant response rating; conditions: for Foxtail, Giant plant response rating (0 to 100 scale): approx. 10 days
Text: as §1, §2

kochia (Kochia scoparia) [4] = assay: Test A preemergence, visual plant response rating; conditions: for Kochia plant response rating (0 to 100 scale): approx. 10 days
Text: as §1, §2

[5] = test system: pigweed (Amaranthus retroflexus); assay: Test A preemergence, visual plant response rating; conditions: for Pigweed plant response rating (0 to 100 scale): approx. 10 days
Text: as §1, §2

[6] = test system: ragweed (common ragweed, Ambrosia elatior); assay: Test A preemergence, visual plant response rating; conditions: approx. 10 days
Text: as §1, §2

[7] = test system: Italian ryegrass (Lolium multiflorum); assay: Test A postemergence, visual plant response rating; conditions: for Ryegrass, Italian plant response rating (0 to 100 scale): 500 g ai/ha, postemergence, 0 is no effect, 100 is complete control; for Ryegrass, Italian plant response rating: Postemergence, 125 g ai/ha, 0 to 100 scale (0 no effect, 100 complete control)
Text: as §1, §2

[8] = test system: barnyardgrass (Echinochloa crus-galli); assay: Test A postemergence, visual plant response rating; conditions: for Barnyardgrass plant response rating (0 to 100 scale): 500 g ai/ha, postemergence, 0 is no effect, 100 is complete control; for Barnyardgrass plant response rating: Postemergence, 125 g ai/ha, 0 to 100 scale (0 no effect, 100 complete control)
Text: as §1, §2

[9] = test system: blackgrass (Alopecurus myosuroides); assay: Test A postemergence, visual plant response rating; conditions: for Blackgrass plant response rating (0 to 100 scale): 500 g ai/ha, postemergence, 0 is no effect, 100 is complete control; for Blackgrass plant response rating: Postemergence, 125 g ai/ha, 0 to 100 scale (0 no effect, 100 complete control)
Text: as §1, §2

corn (Zea mays) = assay: Test A postemergence, visual plant response rating; conditions: for Corn plant response rating (0 to 100 scale): 500 g ai/ha, postemergence, 0 is no effect, 100 is complete control; for Corn plant response rating: Postemergence, 125 g ai/ha, 0 to 100 scale (0 no effect, 100 complete control)
Text: as §1, §2

[10] = test system: foxtail, giant (giant foxtail, Setaria faberii); assay: Test A postemergence, visual plant response rating; conditions: for Foxtail, Giant plant response rating (0 to 100 scale): 500 g ai/ha, postemergence, 0 is no effect, 100 is complete control; for Foxtail, Giant plant response rating: Postemergence, 125 g ai/ha, 0 to 100 scale (0 no effect, 100 complete control)
Text: as §1, §2

[11] = test system: galium (catchweed bedstraw, Galium aparine); assay: Test A postemergence, visual plant response rating; conditions: for Galium plant response rating (0 to 100 scale): 500 g ai/ha, postemergence, 0 is no effect, 100 is complete control; for Galium plant response rating: Postemergence, 125 g ai/ha, 0 to 100 scale (0 no effect, 100 complete control)
Text: as §1, §2

kochia (Kochia scoparia) [12] = assay: Test A postemergence, visual plant response rating; conditions: for Kochia plant response rating (0 to 100 scale): 500 g ai/ha, postemergence, 0 is no effect, 100 is complete control; for Kochia plant response rating: Postemergence, 125 g ai/ha, 0 to 100 scale (0 no effect, 100 complete control)
Text: as §1, §2

[13] = test system: pigweed (Amaranthus retroflexus); assay: Test A postemergence, visual plant response rating; conditions: for Pigweed plant response rating (0 to 100 scale): 500 g ai/ha, postemergence, 0 is no effect, 100 is complete control; for Pigweed plant response rating: Postemergence, 125 g ai/ha, 0 to 100 scale (0 no effect, 100 complete control)
Text: as §1, §2

[14] = test system: ragweed (common ragweed, Ambrosia elatior); assay: Test A postemergence, visual plant response rating; conditions: for Ragweed plant response rating (0 to 100 scale): 500 g ai/ha, postemergence, 0 is no effect, 100 is complete control; for Ragweed plant response rating: Postemergence, 125 g ai/ha, 0 to 100 scale (0 no effect, 100 complete control)
Text: as §1, §2

[15] = test system: wheat (Triticum aestivum); assay: Test A postemergence, visual plant response rating; conditions: for Wheat plant response rating (0 to 100 scale): 500 g ai/ha, postemergence, 0 is no effect, 100 is complete control; for Wheat plant response rating: Postemergence, 125 g ai/ha, 0 to 100 scale (0 no effect, 100 complete control)
Text: as §1, §2

[16] = test system: barnyardgrass (Echinochloa crus-galli); assay: Test B flooded paddy test, visual plant response rating; conditions: 250 g ai/ha, Flood, applied to paddy water, 2-leaf stage, evaluated after 13 to 15 days
Procedure: (§3) Plant species in the flooded paddy test selected from rice (Oryza sativa), sedge, umbrella (small-flower umbrella sedge, Cyperus difformis), ducksalad (Heteranhera limosa), and barnyardgrass (Echinochloa crus-galli) were grown to the 2-leaf stage for testing. At time of treatment, test pots were flooded to 3 cm above the soil surface treated by application of test compounds directly to the paddy water, and then maintained at that water depth for the duration of the test. Treated plants and controls were maintained in a greenhouse for 13 to 15 days, after which time all species were compared to controls and visually evaluated. […] A dash (-) response means no test result.

[17] = test system: ducksalad (Heteranhera limosa); assay: as above; conditions: 250 g ai/ha, Flood, applied to paddy water, 2-leaf stage, evaluated after 13 to 15 days
Procedure: as §3

rice (Oryza sativa) = assay: as above; conditions: 250 g ai/ha, Flood, applied to paddy water, 2-leaf stage, evaluated after 13 to 15 days
Procedure: as §3

[18] = test system: sedge, umbrella (small-flower umbrella sedge, Cyperus difformis); assay: as above; conditions: 250 g ai/ha, Flood, applied to paddy water, 2-leaf stage, evaluated after 13 to 15 days
Procedure: as §3

[19] = 125 g ai/ha, preemergence, 0 to 100 scale, 0 no effect, 100 complete control

Compound	Ryegrass, Italian plant response rating (0 to 100 scale) ([1]; 500 g ai/ha Preemergence)	Barnyardgrass plant response rating (0 to 100 scale) ([2]; 500 g ai/ha Preemergence)	Foxtail, Giant plant response rating (0 to 100 scale) ([3]; 500 g ai/ha Preemergence)	Kochia plant response rating (0 to 100 scale) (kochia (Kochia scoparia) [4]; 500 g ai/ha Preemergence)	Pigweed plant response rating (0 to 100 scale) ([5]; 500 g ai/ha Preemergence)	Ryegrass, Italian plant response rating (0 to 100 scale) [7]	Ryegrass, Italian plant response rating [7]	Barnyardgrass plant response rating (0 to 100 scale) [8]	Barnyardgrass plant response rating [8]	Blackgrass plant response rating (0 to 100 scale) [9]	Blackgrass plant response rating [9]	Corn plant response rating (0 to 100 scale) (corn (Zea mays))	Corn plant response rating (corn (Zea mays))	Foxtail, Giant plant response rating (0 to 100 scale) [10]	Foxtail, Giant plant response rating [10]	Galium plant response rating (0 to 100 scale) [11]	Galium plant response rating [11]	Kochia plant response rating (0 to 100 scale) (kochia (Kochia scoparia) [12])	Kochia plant response rating (kochia (Kochia scoparia) [12])	Pigweed plant response rating (0 to 100 scale) [13]	further results
C=CCn1nc(C)c(O)c(C(=NOC)c2cccc(Cl)c2)c1=O (mixture of isomers) [Compound 5]	20	70	10	0	0	30	0	30	10	50	10	0	0	10	0	0	0	0	0	0	Ryegrass, Italian plant response rating (0 to 100 scale) ([1]; 125 g ai/ha Preemergence): 0; Barnyardgrass plant response rating (0 to 100 scale) ([2]; 125 g ai/ha Preemergence): 20; Foxtail, Giant plant response rating (0 to 100 scale) ([3]; 125 g ai/ha Preemergence): 0; Kochia plant response rating (0 to 100 scale) (kochia (Kochia scoparia) [4]; 125 g ai/ha Preemergence): 0; Pigweed plant response rating (0 to 100 scale) ([5]; 125 g ai/ha Preemergence): 0; Ragweed plant response rating (0 to 100 scale) ([6]; 125 g ai/ha Preemergence): 0; Ragweed plant response rating (0 to 100 scale) ([6]; 500 g ai/ha Preemergence): 0; Pigweed plant response rating [13]: 0; Ragweed plant response rating (0 to 100 scale) [14]: 0; Ragweed plant response rating [14]: 0; Wheat plant response rating (0 to 100 scale) [15]: 0; Wheat plant response rating [15]: 0; Plant response rating, Barnyardgrass (0 to 100 scale, 0 is no effect, 100 is complete control) [16]: 0; Plant response rating, Ducksalad (0 to 100 scale, 0 is no effect, 100 is complete control) [17]: 0; Plant response rating, Rice (0 to 100 scale, 0 is no effect, 100 is complete control) (rice (Oryza sativa)): 0; Plant response rating, Sedge, Umbrella (0 to 100 scale, 0 is no effect, 100 is complete control) [18]: 0
CO/N=C(/c1c(OC(C)=O)c(Cl)nn(C)c1=O)c1cccc2ccccc12 [Compound 132]	0	80	90	90	80	20	10	60	20	60	40	10	10	60	40	100	90	80	60	70	Ryegrass, Italian plant response rating [1, 19]: 0; Barnyardgrass plant response rating [2, 19]: 70; Foxtail, Giant plant response rating [3, 19]: 40; Kochia plant response rating (kochia (Kochia scoparia) [4]; [19]): 90; Pigweed plant response rating [5, 19]: 80; Pigweed plant response rating [13]: 40; Ragweed plant response rating (0 to 100 scale) [14]: 90; Ragweed plant response rating [14]: 90; Wheat plant response rating (0 to 100 scale) [15]: 0; Wheat plant response rating [15]: 0; Plant response rating, Barnyardgrass (0 to 100 scale, 0 is no effect, 100 is complete control) [16]: 0; Plant response rating, Ducksalad (0 to 100 scale, 0 is no effect, 100 is complete control) [17]: 25; Plant response rating, Rice (0 to 100 scale, 0 is no effect, 100 is complete control) (rice (Oryza sativa)): 0; Plant response rating, Sedge, Umbrella (0 to 100 scale, 0 is no effect, 100 is complete control) [18]: 15
